Entries after “also recorded” stand apart in the source; their conditions may differ. Non-standard residues stand in square brackets, D forms with d.
Columns and labels:
3T3-L1 adipocytes = test: cAMP production in 3T3-L1 adipocytes; type: cell-based; settings: CST 100 nM, ISO 10 μM, 10 min
[1] = test system: PC-12 neuroendocrine cells; test: cAMP production in PC-12 cells; type: cell-based; settings: CST 100 nM, ISO 10 μM, 10 min
CST-KO mice = test: ITT in insulin resistant CST-KO mice with CST, RI-CST or NSC-177941; type: in vivo; settings: for insulin sensitivity during ITT: NCD-fed CST-KO mice, insulin 0.4 mU/g BW
Source text: FIG. 16. […] Figures in parentheses indicate number of animals.

[2] = Screening of CST structural analogs for blood pressure reduction; settings: in vivo
Chk2 protein kinase = Chk2 protein kinase (Homo sapiens, UniProt O96017); settings: Jobson et al. (9); cited from earlier work
primary adipocytes = test: Lipolytic glycerol release from primary adipocytes; type: cell-based, mice; settings: for effect on the lipolytic effect of isoproterenol: adipocytes, with isoproterenol 10 μM
Method: Mice were fasted for 12 hr prior to blood draw. Triglycerides (TG) and non-esterified fatty acids (NEFA) were assayed using kits from Wako Diagnostics (Richmond, Va.). Glycerol was assayed using a kit from Sigma (St Louis, Mo.). Media from the explant cultures and mouse serum were analysed for glycerol and NEFA as a measure of lipolysis. ELISA kits were used to determine plasma levels of leptin, adiponectin (Millipore, Billerica, Mass.) and CST (Bachem, Torrance, Calif.). For CST assay, plasma samples and reference standards were passed through mini C18 columns and the flow-through fractions were assayed. The same kits were used for measurements in culture media.
Primary adipocytes were isolated from epididymal fat pads essentially as described (43). Adipose tissues from WT and Chga-KO mice were minced in Krebs-Ringer bicarbonate-Hepes (KRBH) buffer, pH 7.4, containing 10 mM bicarbonate, 30 mM Hepes, 200 nM adenosine, 2.5 mM glucose and 1% fatty-acid-free BSA, and digested for 30-40 min with Type I collagenase (10 mg/g tissue; Invitrogen, Carlsbad, Calif.) with gentle swirling in a 37° C. incubator. The digestion mixture was then filtered through a nylon strainer and centrifuged at 400×g for 1 min. The oily layer (released from broken cells) above floating fat cells was skimmed off, and fat cells were recovered from the top and washed three times with warm KRBH.

HFD-fed Chga-KO mice = test: Peptide supplementation to HFD-fed Chga-KO mice (insulin sensitivity); type: in vivo; settings: HFD (60%)-fed Chga-KO mice
Chga-/- mice [3] = settings: reference (8), cited from earlier work
[4] = reference (8); cited from earlier work
Chga-/- mice [5] = test: Blood pressure in hypertensive Chga-KO mice; type: in vivo
[6] = test system: adipose tissue explants from DIO mice; test: Lipolysis and fatty acid oxidation in adipose explants of DIO mice; type: cell-based
Method: (§1) FIG. 8. Lipolysis and fatty acid oxidation in the adipose tissue explants of DIO and Ob/Ob mice after treatment with saline or CST for 16 days. Explants were incubated with saline or leptin (1 μM) for 3 hr and the concentrations of glycerol (A&C) and NEFA (B&D) released into the media from DIO (A&B) and Ob/Ob (C&D) explants were determined as a measure of lipolysis. Homogenates of the explants from DIO (E) and Ob/Ob […] were used to determine their capacity for oxidation of U-^14C-palmitate in response to the treatment with saline, CST, leptin and CST+leptin. The ^14CO2 released was captured and counted as the measure of fatty acid oxidation.
(§2) Adipose tissue explants were prepared as described (42). Epididymal fat pads from 12 hr fasted WT, Chga-KO, DIO and Ob/Ob mice with or without CST treatment were collected in Kreb-Ringer-phosphate (KRP) buffer containing 10 mM Hepes and 0.5% BSA. Tissues were minced to 1-2 mm size and treated with 100 nM CST, 1 μM leptin, or saline for 30 min (for signaling analysis) or 3 hr (for lipolysis and β-oxidation assays). Explants were also treated acutely with CST, leptin, a combination, or saline. At the end, incubation media were saved for analysis of glycerol and fatty acid release. Explants were washed prior to homogenization for immunoblotting and analysis of fatty acid oxidation.
(§3) Oxidation of radiolabeled palmitate in the homogenates of adipose tissue explants as described previously (45). For oxidation studies of cultured cells, HepG2 (hepatocytes) and 3T3-L1 preadipocytes were obtained from ATCC and cultured following supplier's protocol. Confluent 3T3-L1 cultures were differentiated into adipocytes by treating with a cocktail of dexamethasone (100 nM), IBMX ([…]) and insulin (100 nM) for 10 days. Media were then switched to serum-free DMEM with 1% BSA. Hepatocytes were assayed for lipogenesis and fat oxidation in response to CST treatment. Serum-free cultures were treated with CST (100 nM) for 24 hr followed by a 2 hr incubation with U^14C-palmitate (0.5 μCi/ml). Fatty acid oxidation in cells was determined by modifying a published method (46). Specifically, the culture media in 24-well plates were acidified with 10% HClO4 after incubation with the labeled fatty acid and immediately covered with a thick filter paper sheet (cut to size) soaked in 2 N NaOH and placed underneath the plastic lid. The whole plate was sealed with parafilm. After further incubation for 2 hr, the filter paper sheet was marked as circles around the rim of the wells and then the circles were excised. The filter discs were counted to determine the amount of ^14CO2 absorbed in the papers. Cells in the culture wells were lysed in 1 N NaOH and protein content was assayed using Folin's reagent (BioRad, Hercules, Calif.).

[7] = test system: STAT3 and AMPK phosphorylation; test: Stat3 and AMPK signaling in adipose explants from DIO mice; type: cell-based; settings: CST in vivo, leptin 1 μM ex vivo 30 min
Method: (§4) FIG. 9. Stat3 and AMPK signaling in the adipose tissue explants from DIO and Ob/Ob mice treated with saline, CST (in vivo) and leptin (ex vivo). Explants from DIO mice (A&B) and Ob/Ob mice (C&D) were incubated with saline or leptin (1 μM) for 30 min, homogenized and immunoblotted for phospho- and total Stat3 (A&C) as well as phospho- and total AMPK signals (B&D). Results are presented as the ratio of signal strength of phospho-over total.
as §2
(§5) Adipose tissue explants after treatments ex vivo and tissues from mice treated in vivo were homogenized in a buffer containing phosphatase and protease inhibitors (20 mM Tris/HCl (pH 7.5), 250 mM sucrose, 2 mM EDTA, 2 mM EGTA, 2 mM Na3VO4, 10 mM NaF, 2 mM Na4P2O7, 1 mM phenylmethylsulfonyl fluoride, 20 μg/ml leupeptin, 10 μg/ml aprotinin, and 1 μM LR-microcystin) as described (38,44). Homogenates were subjected to SDS-PAGE and immunoblotted. Primary antibodies for AMPK and Stat3 were from Cell Signaling Technology (Beverly, Mass.). The chemiluminescence kit was from Pierce (Rockford, Ill.).

[8] = test system: adipose tissue explants from Ob/Ob mice; test: Lipolysis and fatty acid oxidation in adipose explants of Ob/Ob mice; type: cell-based
Method: as §1, §2, §3

[9] = test system: STAT3 and AMPK phosphorylation; test: Stat3 and AMPK signaling in adipose explants from Ob/Ob mice; type: cell-based; settings: CST in vivo, leptin 1 μM ex vivo 30 min
Method: as §4, §2, §5

[10] = test system: AMPK and Stat3 phosphorylation; test: AMPK and Stat3 signaling in adipose tissue explants from Chga-KO mice; type: cell-based; settings: leptin 1 μM 30 min
Method: FIG. 6. Regulation of AMPK and Stat3 signaling by CST in adipose tissue explants. Explants from Chga-KO mice were treated with saline or CST (100 nM for 30 min) and immunoblotted for pAMPK and AMPK (A). Adipose explants from WT and Chga-KO mice were immunoblotted for pAMPK and AMPK after treatment with saline or leptin (1 μM) for 30 min (B). pAMPK and AMPK (C) and pStat3 and Stat3 (D) signaling in adipose explants from WT and Chga-KO mice after treatment for 30 min with saline, CST (100 nM), leptin (1 μM) or leptin plus CST.
as §2, §5

[11] = CST in vivo 16 days, leptin 1 μM ex vivo 3 hr

Chk2 protein kinase, sequence (O96017 whole entry): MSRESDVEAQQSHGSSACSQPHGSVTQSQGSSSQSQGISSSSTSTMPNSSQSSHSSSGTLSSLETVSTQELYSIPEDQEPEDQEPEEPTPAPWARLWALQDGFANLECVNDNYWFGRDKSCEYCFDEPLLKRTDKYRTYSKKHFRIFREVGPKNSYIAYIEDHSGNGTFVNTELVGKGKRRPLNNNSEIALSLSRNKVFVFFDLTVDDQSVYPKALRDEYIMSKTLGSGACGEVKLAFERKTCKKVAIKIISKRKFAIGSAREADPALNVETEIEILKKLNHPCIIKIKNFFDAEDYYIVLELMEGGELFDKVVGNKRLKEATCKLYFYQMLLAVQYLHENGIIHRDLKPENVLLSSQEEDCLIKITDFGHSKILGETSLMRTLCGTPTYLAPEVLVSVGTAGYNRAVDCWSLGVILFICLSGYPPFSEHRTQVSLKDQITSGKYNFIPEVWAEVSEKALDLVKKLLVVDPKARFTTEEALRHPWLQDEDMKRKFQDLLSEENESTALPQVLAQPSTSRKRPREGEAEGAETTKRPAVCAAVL

**Q.** With `CC(C)NCC(O)c1ccc(O)c(O)c1` (racemic) [isoproterenol, (RS)-4-[1-hydroxy-2-(isopropylamino)ethyl]benzene-1,2-diol, reference compound] as the molecule, how does the cAMP production (3T3-L1 adipocytes) read?
**A.** The cAMP production was “stimulated”.

**Q.** And the cAMP production [1]?
**A.** The cAMP production was “stimulated”.

**Q.** With `C/C(=N\N=C(N)N)c1cccc(NC(=S)Nc2cccc(/C(C)=N/N=C(N)N)c2)c1` [NSC-177941, 1,3-bis[3-[(E)-N-(diaminomethyllideneamino)-C-methylcarbonimidoyl]phenyl]thiourea] as the molecule, how does the “effect on insulin sensitivity in the first 30 min” value (CST-KO mice; ITT in CST-KO mice) read?
**A.** The value was “ineffective”.

**Q.** What about the “time window of increase in insulin sensitivity” value (CST-KO mice; ITT in CST-KO mice) of the same molecule?
**A.** Its value is 30 to 90 min.

**Q.** And the “insulin sensitivity during ITT” value (CST-KO mice)?
**A.** Its value is “transient increase in insulin sensitivity”.

**Q.** What about the “insulin sensitivity during ITT” value (CST-KO mice; listed as NSC-177941) of the same molecule?
**A.** Its value is “Improvement in insulin sensitivity”.

**Q.** And the blood pressure [2]?
**A.** Its blood pressure is “reducing blood pressure”.

**Q.** And the “inhibition of Chk2 protein kinase activity” value (Chk2 protein kinase)?
**A.** Its value is “inactive”.

**Q.** Which “effect on the lipolytic effect of isoproterenol” value (primary adipocytes) does the source give for `Cc1ccc(N(CC2=NCCN2)c2cccc(O)c2)cc1` [phentolamine, 3-[(4,5-dihydro-1H-imidazol-2-ylmethyl)(4-methylphenyl)amino]phenol] here?
**A.** Its value is “potentiated”.

**Q.** What about the “glycerol release (lipolysis)” value (primary adipocytes; primary adipocytes, substance alone) of the same molecule?
**A.** The value was “stimulated lipolysis”.

**Q.** Which “effect on the lipolytic effect of isoproterenol” value (primary adipocytes) does the source give for `CNC[C@H](O)c1cccc(O)c1` [phenylephrine, (R)-3-[-1-hydroxy-2-(methylamino)ethyl]phenol] here?
**A.** Its value is “dampened”.

**Q.** With “PST: anti-insulin CHGA-derived peptide pancreastatin (CHGA250-301) [reference compound]” as the molecule, how does the “insulin sensitivity (GTT)” value (HFD-fed Chga-KO mice) read?
**A.** Its value is “reversed the phenotype”.

**Q.** Which results are given for “amino-l372qpGpGrfGyararfslkmss352-carboxyl (SEQ ID NO:27) (H-[dL][dQ][dP]G[dP]G[dR][dF]G[dY][dA][dR][dA][dR][dF][dS][dL][dK][dM][dS][dS]-OH; SMILES CSCC[C@@H](NC(=O)[C@@H](CCCCN)NC(=O)[C@@H](CC(C)C)NC(=O)[C@@H](CO)NC(=O)[C@@H](Cc1ccccc1)NC(=O)[C@@H](CCCNC(=N)N)NC(=O)[C@@H](C)NC(=O)[C@@H](CCCNC(=N)N)NC(=O)[C@@H](C)NC(=O)[C@@H](Cc1ccc(O)cc1)NC(=O)CNC(=O)[C@@H](Cc1ccccc1)NC(=O)[C@@H](CCCNC(=N)N)NC(=O)CNC(=O)[C@H]1CCCN1C(=O)CNC(=O)[C@H]1CCCN1C(=O)[C@@H](CCC(N)=O)NC(=O)[C@H](N)CC(C)C)C(=O)N[C@H](CO)C(=O)N[C@H](CO)C(=O)O) [RI-CST, retro-inverso peptide equivalent of human CST]”?
**A.** period of BP suppression (Chga-/- mice [3]; compared to CST): > 8 h; SBP (Chga-/- mice [3]; hypertensive Chga-KO mice): functional in reducing SBP; persistence of the insulin-sensitizing effect (CST-KO mice; ITT in CST-KO mice): persisted throughout the experimental period; insulin sensitivity during ITT (CST-KO mice): increasing sensitivity to insulin; also recorded: Improvement in insulin sensitivity; protease degradation [4]: fairly resistant; interval for which the therapeutic BP effect was sustained (Chga-/- mice [5]; R-I versus W-T isoform): > 8 h; high BP phenotype (Chga-/- mice [5]; monogenic model of hypertension): effective in rescuing (reducing) the high BP phenotype

**Q.** Which palmitate oxidation [6] does the source give for “leptin: adipokine hormone, ligand of leptin receptor (Ob-R)” here?
**A.** Its palmitate oxidation is “neither CST nor leptin alone stimulated oxidation”.

**Q.** What about the “NEFA release in the media” value [6, 11] of the same molecule?
**A.** Its value is “did not stimulate lipolysis”.

**Q.** And the “glycerol release in the media” value [6, 11]?
**A.** Its value is “did not stimulate lipolysis”.

**Q.** What about the AMPK phosphorylation [7] of the same molecule?
**A.** Its AMPK phosphorylation is “did not stimulate”.

**Q.** And the STAT3 phosphorylation [7]?
**A.** The STAT3 phosphorylation was “did not stimulate”.

**Q.** And the palmitate oxidation [8]?
**A.** The palmitate oxidation was “stimulatory for oxidation”.

**Q.** What about the “lipolysis (glycerol and NEFA release)” value [8, 11] of the same molecule?
**A.** Its value is “stimulated lipolysis”.

**Q.** What about the AMPK phosphorylation [9] of the same molecule?
**A.** The AMPK phosphorylation was “stimulated phosphorylation”.

**Q.** What about the STAT3 phosphorylation [9] of the same molecule?
**A.** The STAT3 phosphorylation was “stimulated phosphorylation”.

**Q.** What about the “phosphorylation of AMPK following acute leptin treatment, compared to WT” value [10] of the same molecule?
**A.** The value was “decreased”.

**Q.** What about the “phosphorylation of STAT3 following acute leptin treatment, compared to WT” value [10] of the same molecule?
**A.** Its value is “decreased”.
